Reference: patent publication US10024865B2, “Ubiquitination assay” (ITI Scotland Limited, priority 2010, dated 2018)
“And” between values parts separate entries of the source, which are not always exact repeats. Equal values may be shown once. “Also recorded” adds a separate entry of the source.

Experiments:
[1] = test system: T1, SCF^Skp2/Cks1; experiment: 'Live' SCF^Skp2/Cks1 assay (E3 assay, p27 ubiquitination), ECL; type: biochemical, human; conditions: for follow up IC50 (in words): titration from 300 μM to 10 nM
T1 construct: 6His-Skp2-(isoform 1, hu,FL), GST-Skp1-; (hu,FL), 6His-Cul1-(hu,FL), UT-Rbx1-; 6His-Cks1-(hu,FL); 6His (N); GST (N); made in house
T1 sequence (Q13309 whole entry, canonical isoform): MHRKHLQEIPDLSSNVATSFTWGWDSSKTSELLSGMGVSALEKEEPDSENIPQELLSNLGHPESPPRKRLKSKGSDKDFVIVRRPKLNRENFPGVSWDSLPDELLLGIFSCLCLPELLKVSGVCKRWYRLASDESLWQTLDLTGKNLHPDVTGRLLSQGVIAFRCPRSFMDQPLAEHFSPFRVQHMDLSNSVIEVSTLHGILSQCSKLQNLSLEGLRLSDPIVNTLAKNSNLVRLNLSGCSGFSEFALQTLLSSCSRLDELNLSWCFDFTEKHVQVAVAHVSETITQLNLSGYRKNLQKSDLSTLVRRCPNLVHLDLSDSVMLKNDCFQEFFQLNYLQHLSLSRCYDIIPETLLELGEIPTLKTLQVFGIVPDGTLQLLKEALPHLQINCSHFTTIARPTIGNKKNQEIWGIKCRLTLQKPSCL
T1 sequence (P63208 1-160 isoform P63208-2, further chain): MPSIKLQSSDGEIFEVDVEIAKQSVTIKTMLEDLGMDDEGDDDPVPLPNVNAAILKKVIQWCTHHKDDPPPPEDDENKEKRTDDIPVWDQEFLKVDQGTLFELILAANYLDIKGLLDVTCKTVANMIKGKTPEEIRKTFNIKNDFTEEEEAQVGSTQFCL
T1 sequence (Q13616 whole entry, further chain, canonical isoform): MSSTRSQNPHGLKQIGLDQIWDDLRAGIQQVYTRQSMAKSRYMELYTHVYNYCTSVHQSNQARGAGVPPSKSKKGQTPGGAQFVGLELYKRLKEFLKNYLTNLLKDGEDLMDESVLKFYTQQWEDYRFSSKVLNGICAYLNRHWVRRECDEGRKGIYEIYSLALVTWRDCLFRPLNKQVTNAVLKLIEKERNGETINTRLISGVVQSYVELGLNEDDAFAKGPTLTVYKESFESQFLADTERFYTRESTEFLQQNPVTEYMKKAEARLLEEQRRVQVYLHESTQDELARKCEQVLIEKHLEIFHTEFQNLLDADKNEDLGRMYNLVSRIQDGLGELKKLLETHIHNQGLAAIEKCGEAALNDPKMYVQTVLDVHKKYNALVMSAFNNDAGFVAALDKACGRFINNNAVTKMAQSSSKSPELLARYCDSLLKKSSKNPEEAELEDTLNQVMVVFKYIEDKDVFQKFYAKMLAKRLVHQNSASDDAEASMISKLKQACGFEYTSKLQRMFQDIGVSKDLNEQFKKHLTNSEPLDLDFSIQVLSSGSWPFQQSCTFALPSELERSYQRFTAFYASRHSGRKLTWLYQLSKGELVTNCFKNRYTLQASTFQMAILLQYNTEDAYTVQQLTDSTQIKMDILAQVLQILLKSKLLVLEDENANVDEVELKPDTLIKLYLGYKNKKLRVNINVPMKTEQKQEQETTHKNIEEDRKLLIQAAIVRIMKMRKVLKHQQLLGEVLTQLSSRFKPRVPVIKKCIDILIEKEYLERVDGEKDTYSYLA
T1 sequence (P62877 whole entry, further chain, canonical isoform): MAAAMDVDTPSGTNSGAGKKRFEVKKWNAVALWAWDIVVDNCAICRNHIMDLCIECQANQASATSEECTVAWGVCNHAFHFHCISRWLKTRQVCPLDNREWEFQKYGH
T1 sequence (P61024 whole entry, further chain, canonical isoform): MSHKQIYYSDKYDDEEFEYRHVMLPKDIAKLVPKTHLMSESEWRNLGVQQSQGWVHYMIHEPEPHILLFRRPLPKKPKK
Procedure: FIG. 23 (a): ‘Live’ SCF^Skp2/Cks1 Assay—ECL ubiquitin titration. Used 60 minute incubation; 25 nM c-Myc p27; anti c-Myc capture for p27 (Millipore 05-274, 1/500); 5 nM E1; 1 μM E2 (HA); 25 nM E3/Cks1; 5 to 0.08 μM Ub; 1000 to 15 μM ATP; streptavidin sulfo tag (MSD, R32AD-1, 1 μg/ml). Hyperbolic increase in signal with [Ub]. Optimum signal after 2 μM ubiquitin. Largely […] of ATP concentration. […] Final assay concentration is set at 2 μM.
FIG. 23 (b): ‘Live’ SCF^Skp2/Cks1 Assay—ECL ATP titration. Used 60 minute incubation; 25 nM c-Myc p27; anti c-Myc capture for p27 (Millipore 05-274, 1/500); 5 nM E1; 1 μM E2 (HA); 25 nM E3/Cks1; 2 μM Ub; 1000 to 7 μM ATP; streptavidin sulfo tag (MSD, R32AD-1, 1 μg/ml). Initial experiments indicated a high signal which was independent of ATP concentration (lowest [ATP] of 21 μM)—indicative of tight binding. […] Km estimated at 4 μM. Final assay concentration set at 100 μM.
FIG. 30 (a): ‘Live’ SCF^Skp2/Cks1 Assay—ECL Inhibitor study—PYR-41 (E1 inhibitor).
FIG. 32: ‘Live’ SCF^Skp2/Cks1 Assay—ECL R140 Kinase inhibitor panel. Used 60 minute incubation; 25 nM c-Myc p27; anti-c-Myc capture for p27 (Millipore 05-274, 1/500); 5 nM E1; 1 μM E2 (HA); 25 nM E3 tetramer; 25 nM Cks1; 2 μM Ub; 100 μM ATP; streptavidin sulfo tag (MSD, R32AD-1, 1 μg/ml).
FIG. 34: ‘Live’ SCF^Skp2/Cks1 Assay—ECL follow up IC50s. Used 60 minute incubation; 25 nM c-Myc p27; anti c-Myc capture for p27 (Millipore 05-274, 1/500); 5 nM E1; 1 μM E2 (HA); 25 nM E3 tetramer; 25 nM Cks1; 2 μM Ub; 100 μM ATP; streptavidin sulfo tag (MSD, R32AD-1, 1 μg/ml). Titration of PYR41 (Calbiochem 662105) from 300 μM to 10 nM (control). Titration of Rottlerin, EGCG, AG538 and K252c from 300 μM to 10 nM.
(§1) Each of the assays in the p27 ubiquitination cascade (E1, E2 and E3) were tested against the E1 inhibitor PYR-41. No pre-charging of either the E1 or E2 was carried out prior to the introduction of the compound although in the E3 assay, p27 phosphorylation by CDK2/Cyclin E was carried out in the absence of inhibitor.
In order to test the feasibility of screening the E3 assay against a range of inhibitors, the assay was tested against a panel of 41 inhibitors (40 known kinase inhibitors and PYR-41) (FIG. 31). […] Using the same assay conditions, the E3 assay was tested against these inhibitors (FIG. 33).

[2] = target: T2, Ube1 (Homo sapiens, UniProt P22314); experiment: Ube1 (E1) assay, ECL; type: biochemical; conditions: 50 nM E1, 2 μM Ub
T2 construct: 6His-UBE1-(hu,FL) (E1); made in house
T2 sequence (P22314 1-1058): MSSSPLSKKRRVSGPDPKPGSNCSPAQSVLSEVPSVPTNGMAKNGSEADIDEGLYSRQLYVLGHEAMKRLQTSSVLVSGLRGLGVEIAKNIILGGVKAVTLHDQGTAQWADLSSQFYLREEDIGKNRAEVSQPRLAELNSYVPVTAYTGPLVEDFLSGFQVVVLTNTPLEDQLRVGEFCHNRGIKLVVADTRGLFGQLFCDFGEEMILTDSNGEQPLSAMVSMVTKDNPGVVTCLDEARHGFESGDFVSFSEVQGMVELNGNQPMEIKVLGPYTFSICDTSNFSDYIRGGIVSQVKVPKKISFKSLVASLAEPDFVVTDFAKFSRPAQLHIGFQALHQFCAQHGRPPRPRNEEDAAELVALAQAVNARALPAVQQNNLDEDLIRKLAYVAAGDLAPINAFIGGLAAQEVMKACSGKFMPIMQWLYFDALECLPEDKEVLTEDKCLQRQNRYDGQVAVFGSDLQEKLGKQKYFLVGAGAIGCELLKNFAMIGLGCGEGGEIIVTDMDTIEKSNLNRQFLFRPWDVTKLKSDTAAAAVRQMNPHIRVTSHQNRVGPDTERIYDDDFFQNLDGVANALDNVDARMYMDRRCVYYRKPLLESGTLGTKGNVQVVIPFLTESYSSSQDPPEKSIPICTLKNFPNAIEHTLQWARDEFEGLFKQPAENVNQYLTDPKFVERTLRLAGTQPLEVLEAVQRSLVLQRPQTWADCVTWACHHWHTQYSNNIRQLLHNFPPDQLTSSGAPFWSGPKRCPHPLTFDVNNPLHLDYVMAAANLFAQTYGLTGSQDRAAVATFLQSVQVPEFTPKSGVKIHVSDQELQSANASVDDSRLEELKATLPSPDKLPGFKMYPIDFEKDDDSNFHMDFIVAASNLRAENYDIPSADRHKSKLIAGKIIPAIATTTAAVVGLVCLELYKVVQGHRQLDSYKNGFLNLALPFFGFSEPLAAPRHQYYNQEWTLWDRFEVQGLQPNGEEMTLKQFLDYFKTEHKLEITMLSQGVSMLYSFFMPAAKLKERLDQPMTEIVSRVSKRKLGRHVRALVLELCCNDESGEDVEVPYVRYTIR
Procedure: FIG. 11: Ube1 inhibitor study PYR41— ECL. Inhibitor study. Titration of PYR41 (Calbiochem 662105) from 300 μM to 10 nM. Used anti-His capture for E1 (Millipore, 16-255, 1/1000 dil); 50 nM E1; 2 μM Ub; 500 μM ATP; 30-minute pre-incubation with cpd.; 30 minute reaction time.
(§2) FIG. 30 (b): E1/E2 Assay—ECL Inhibitor study—PYR-41. Used 60 minute incubation; 2 μM Ub; 100 μM ATP. For E1 assay (Anti-His capture) 50 nM E1. For E2 assay (Anti HA-capture) 5 nM E1; 50 nM E2. Used streptavidin sulfo tag (MSD R32AD-1, 1 μg/ml); titration of PYR41 (Calbiochem 662105) from 300 μM to 10 nM.
For the IC50 determination of Pyr-41, the data shown is that from a 30 minute pre-incubation and a 30 minute assay. The assay was performed in a separate plate and then transferred. For information purposes, another set of assays were performed within the capture/detect plate and stopped immediately by washing off the assay solution, or washed after 60 min. It was interesting to note that even with the wash at time 0 an IC50 for the compound that was in line with the data shown could still be determined.
as §1

[3] = target: T3, UbCH3 (Homo sapiens, UniProt P49427); experiment: UbCH3 (E2) assay, ECL (anti-HA capture); type: biochemical; conditions: 5 nM E1, 50 nM E2, 2 μM Ub, 100 μM ATP, 60 minute incubation
T3 construct: HA,6His-UbcH3-(hu,FL) (E2); made in house
T3 sequence (P49427 whole entry, one chain of several): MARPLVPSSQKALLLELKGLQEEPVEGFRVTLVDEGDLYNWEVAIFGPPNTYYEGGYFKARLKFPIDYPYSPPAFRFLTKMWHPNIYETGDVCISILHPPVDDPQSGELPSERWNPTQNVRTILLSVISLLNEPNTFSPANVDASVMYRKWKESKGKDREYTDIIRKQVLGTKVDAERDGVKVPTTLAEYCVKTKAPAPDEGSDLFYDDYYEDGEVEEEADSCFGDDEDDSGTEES
Procedure: as §2, §1

[4] = target: T2, Ube1; experiment: E1 assay, HTRF; type: biochemical; conditions: 1 μM E1, 2 μM Ub, Anti-6His-K, 30 minutes pre-incubation
Procedure: (§3) FIG. 18: Ube1 Inhibitor study PYR41 in E1 and E1+E2 assay—HTRF. Inhibitor study: 30 minutes pre-incubation with PYR-41. Assays were immediately diluted followed by addition of 2 mM ATP.
(§4) Using conditions identified previously, an IC50 determination for Pyr-41 using the E1 and E1/E2 assays was performed. […] This may be a reflection of the higher enzyme concentrations used in the HTRF assay step (FIG. 18).

[5] = target: T4, Ube1/UbCH3 (Homo sapiens, UniProt P22314); experiment: E1+E2 (Ube1+UbCH3) assay, HTRF; type: biochemical; conditions: 100 nM E1, 1 μM E2, 400 nM Ub
T4 construct: 6His-UBE1-(hu,FL) (E1); made in house
T4 sequence (P22314 1-1058): T2 sequence (P22314 1-1058)
Procedure: as §3
BiogenNova quote IC50 value as ˜5 μM.
as §4

[6] = target: T5, E1 (Homo sapiens, UniProt P22314); conditions: cited from earlier work
T5 construct: literature BiogenNova / Calbiochem (quoted value)
T5 sequence (P22314 1-1058): T2 sequence (P22314 1-1058)

[7] = ECL E3 assay, kinase inhibitor panel screen

For `CC(=O)c1c(O)c(C)c(O)c(Cc2c(O)c3c(c(C(=O)/C=C/c4ccccc4)c2O)OC(C)(C)C=C3)c1O` [Rottlerin], the “inhibition in kinase inhibitor panel (in words)” value (shortened to “inhibition … (in words)”) [1, 7] was “show up as inhibitors; also recorded: moderate amounts of inhibition” and the “follow up IC50 (in words)” value ([1]; ECL E3 assay) was “in the μM range”.

For `N#C/C(=C\c1ccc(O)c(O)c1)C(=O)c1ccc(O)c(O)c1` [AG538], the “inhibition … (in words)” value [1, 7] was “show up as inhibitors”.

With `O=C1NCc2c1c1c3ccccc3[nH]c1c1[nH]c3ccccc3c21` [K252c] the “inhibition … (in words)” value [1, 7] was “show up as inhibitors; also recorded: moderate amounts of inhibition” and the “follow up IC50 (in words)” value ([1]; ECL E3 assay) was “false positive result”.

In the case of `CCOC(=O)c1ccc(N2NC(=O)/C(=C/c3ccc([N+](=O)[O-])o3)C2=O)cc1` [PYR-41], the “inhibition in panel of 41 inhibitors” value [1, 7] is reported as > 80%, the IC50 ([1]; ECL, 25 nM c-Myc p27, 5 nM E1, 1 μM E2, 25 nM E3 tetramer, 25 nM Cks1, 2 μM Ub, 100 μM ATP, 60 minute incubation) is reported as 55 µM and 84 µM and the IC50 ([2]; 500 μM ATP, 30 minute pre-incubation with cpd, 30 minute reaction time) is reported as 1.3 µM. For the same molecule, the IC50 ([2]; anti-His capture, 100 μM ATP, 60 minute incubation) was 7.8 µM, the IC50 [3] was 3.2 µM and the IC50 [4] was 43 µM. The IC50 ([5]; Anti-6His-K detection) was 16 µM, the IC50 ([5]; Anti-FLAG-K detection) was 20 µM and the “reported values for the inhibitor (in words)” value ([6]; literature) was “low micromolar range”. For the same molecule, the IC50 ([6]; quoted by BiogenNova / Calbiochem, vs. E1) was ~5 µM.

In the case of `O=C(O[C@@H]1Cc2c(O)cc(O)cc2O[C@@H]1c1cc(O)c(O)c(O)c1)c1cc(O)c(O)c(O)c1` [EGCG], the “inhibition … (in words)” value [1, 7] is reported as “show up as inhibitors; also recorded: moderate amounts of inhibition” and the “follow up IC50 (in words)” value ([1]; ECL E3 assay) is reported as “in the μM range”.

Molecule `Nc1ncnc2c1ncn2[C@@H]1O[C@H](COP(=O)(O)OP(=O)(O)OP(=O)(O)O)[C@@H](O)[C@H]1O` [ATP, Adenosine-5′-Triphosphate] has a Km ([1]; ECL E3 assay, ATP titration 1000 to 7 μM, 2 μM Ub, read-out: apparent Km for ATP) of ~4 µM.
